Data taken from patent US8822509B2, “Pain-relieving compositions and uses therefor” (priority 2006, dated 2014).
Entries after “also recorded” stand apart in the source; their conditions may differ.

Assays:
[1] = test system: hindpaws of control non-diabetic rats; assay: Antinociception by von Frey PWT in control non-diabetic rats; format: in vivo, Wistar rats; conditions: single s.c. bolus; morphine 1.8-21.4 μmol/kg, Compound 1 2-20 fmol/kg
Protocol: Briefly, baseline PWTs were determined for both hindpaws prior to each antinociceptive testing session in the non-diabetic control group at week 0 as well as in groups of STZ-diabetic rats at 10, 14 and 24 wks.
The PWT vs time data were normalized by subtracting the pre-dosing baseline PWT values for each individual rat to obtain ΔPWT values as follows: Normalized (Δ)PWT value=Post-treatment PWT value−PWT value prior to treatment.
ΔPWT versus time curves were then constructed. Trapezoidal integration was used to estimate ΔPWT AUC values for individual rats in the non-diabetic and STZ-diabetic rat treatment groups. ΔPWT AUC versus dose curves were constructed and GraphPad™ Prism was used to estimate the ˜ED50 values.

[2] = test system: systolic blood pressure of normotensive non-diabetic Wistar rats; assay: Systolic blood pressure (tail cuff) in normotensive rats; format: in vivo
Protocol: Sedation was induced by the intraperitoneal administration of Zoletil® (tiletamine 15 mg kg^−1 and zolazepam 15 mg kg^−1). Using a tail pulse transducer (MLT1010) and an inflatable tail cuff with a Capto SP844 physiological pressure transducer (MLT844/D), systolic blood pressure was recorded via a PowerLab data acquisition unit (ADInstruments, Sydney, Australia). Tails were warmed with lukewarm water prior to each blood pressure reading to increase peripheral circulation so as to facilitate blood pressure recordings using the tail cuff method.
This study was designed to assess the effects of single s.c. bolus doses of the furoxan NO donor, Compound 1, relative to vehicle (DMSO:water, 90:10) on systolic blood pressure in normotensive, non-diabetic, adult male Wistar rats. Single bolus doses of Compound 1 were administered by s.c. injection into the back of the neck of adult male normotensive, non-diabetic Wistar rats in the dose range, 80 fmol/kg to 80 lμmol/kg. Specifically, the doses of Compound 1 tested were 80 fmol/kg (n=3), 800 pmol/kg (n=8), 8 nmol/kg (n=6), 800 nmol/kg (n=4), 8 μmol/kg (n=4), 80 μmol/kg (n=3).

MOP receptor = biological target: T1, MOP receptor (Mus musculus, UniProt P42866); assay: Displacement of specific binding of [3H]-DAMGO from membranes of MOP-transfected HEK293 cells
T1 construct: expressed in transfected cells; host or cells: HEK293 (membranes of MOP-HEK cells)
T1 sequence (P42866 whole entry): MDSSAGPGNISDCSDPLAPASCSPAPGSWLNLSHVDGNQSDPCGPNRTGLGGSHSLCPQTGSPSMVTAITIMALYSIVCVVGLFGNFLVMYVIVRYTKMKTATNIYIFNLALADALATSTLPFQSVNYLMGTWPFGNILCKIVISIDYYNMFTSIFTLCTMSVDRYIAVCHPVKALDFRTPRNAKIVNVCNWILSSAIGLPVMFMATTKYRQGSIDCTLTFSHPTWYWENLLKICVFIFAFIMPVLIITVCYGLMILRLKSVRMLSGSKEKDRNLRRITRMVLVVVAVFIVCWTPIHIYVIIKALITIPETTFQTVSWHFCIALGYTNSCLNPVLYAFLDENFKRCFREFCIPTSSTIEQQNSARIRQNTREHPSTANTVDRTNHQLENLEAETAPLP
Protocol: A binding assay was performed to determine whether Compound 1 binds at the MOP receptor.
Stably transfected MOP-HEK cells were plated in a 3×10 cm dish and washed with (3×5 mL) 50 mM Tris-HCl (pH 7.4) when sufficiently confluent. The cells were scraped off the dish in 1.5 mL 50 mM Tris-HCl (pH 7.4) using a transfer pipette and place in 15 mL falcon tubes. The cells were sonicated for a 5 second burst and placed on ice. The protein concentration was estimated. The cells were transferred to a 1.5 mL eppendorf tube and centrifuged at 18,000 rcf for 30 minutes at 4° C. The supernatant was removed and the cells resuspended in 50 mM Tris-HCl (pH 7.4) and 1 mg/mL BSA. An aliquot containing 30-50 μg/200 μL protein was taken and [^3H]DAMGO was added (200 μL in Tris-HCl, pH 7.4) with varying concentrations of unlabelled [D-Ala^2, N-Me-Phe^4, Gly^5-ol]-enkephalin acetate (DAMGO) or Compound 1 (200 μL in Tris-HCl, pH 7.4), total volume 600 μL. The solution was incubated for 1 hour at room temperature with slow rotation.

STZ-diabetic rats = assay: Behavioural side-effects in STZ-diabetic rats; format: in vivo; conditions: Compound 1 800 pmol/kg s.c.; morphine 21 μmol/kg
[3] = test system: non-diabetic control rats; assay: Tolerance development (7-day continuous s.c. infusion, 2-day washout) in non-diabetic control rats, von Frey PWT; format: in vivo
[4] = test system: tactile allodynia in 14-18 week STZ-diabetic rats; assay: Naloxone or ODQ pre-treatment before test article in 14-18 week STZ-diabetic rats, von Frey PWT; format: in vivo, Wistar rats
[5] = test system: non-transfected HEK293 cells; assay: Forskolin-stimulated cAMP responses in non-transfected HEK293 cells; conditions: non-transfected HEK293, entire concentration range tested
Protocol: Non-transfected HEK293 cells were used as a control. Transfected HEK293 cells were maintained in Dulbecco's Modified Eagle's Medium (DMEM) supplemented with 10% fetal bovine serum (FBS) and geneticin (1 mg/mL). Non-transfected HEK293 cells were maintained in DMEM supplemented with 10% FBS.
The functional interaction between opioids and opioid-like compounds and specific opioid G-protein-coupled receptors (GPCRs) was assessed by measuring changes in intracellular cAMP levels relative to basal levels. The Alphascreen cAMP functional assay measures agonist and antagonist activity of GPCRs by stimulating cells to either increase or decrease intracellular cAMP levels. The assay was performed using an Alphascreen cAMP kit according to the manufacturer's instructions. […]
Detection of cAMP is based on the competition between intracellular cAMP and biotinylated cAMP linked streptavidin-coated donor beads for anti-cAMP conjugated acceptor beads. When the donor and acceptor beads are in close proximity visible light emitted at 520-620 nm is detected using the Envision multilabel plate reader. […]
The assay performance was optimized by using cells at low passage number and at 70-90% confluence. […] The cell concentration was determined using a haemocytometer. […] Note that the cell number will influence the cAMP levels measured before (basal) and after adenylyl cyclase activation. […]

[6] = drug-naïve non-diabetic rats, first s.c. bolus
[7] = non-diabetic rats, second s.c. bolus after 7-day infusion and 2-day washout
[8] = non-diabetic rats, second s.c. bolus after washout

SMILES: Cc1c(C=O)no[n+]1[O-] [Compound 1, 4-formyl-3-methyl-1,2,5-oxadiazole-2-oxide]
- antinociception in the hindpaws of control non-diabetic rats [1]: dose-dependent antinociception
- effect on systolic blood pressure ([2]; 80 μmol/kg s.c., 30 min post-dosing vs pre-dosing baseline): decreased significantly; also recorded: significantly reduced systolic blood pressure
- mean (±SEM) systolic blood pressure at time of peak effect ([2]; 80 μmol/kg s.c., 30 min post-dosing, pre-dose 111.3 (±1.5)): 79.8 (±0.5) mm Hg
- mean systolic blood pressure ([2]; 80 μmol/kg s.c., 1 h post-dosing): 112.6±0.4 mm Hg
- effect on systolic blood pressure ([2]; single s.c. bolus 80 fmol/kg to 8 μmol/kg, up to 1 h): no significant effects
- binding to MOP receptors ([3H]-DAMGO displacement) (MOP receptor): does not bind significantly
- behavioural side-effects at highest dose (STZ-diabetic rats): no discernable side-effects
- mean duration of action [3, 6]: ~3 h
- time of peak antinociception post-dosing [3, 6]: 1 h
- mean (±SEM) peak PWT ([3]; drug-naïve non-diabetic rats, Compound 1 8 fmol/kg, morphine 2.8 mmol/kg (so in the source) s.c. bolus): 15.9 ± 0.3 g
- tolerance after 7-day continuous s.c. infusion ([3]; non-diabetic rats): completely tolerant
- antinociception after second bolus, naïve vs "tolerant" rats ([3]; non-diabetic rats, after 2-day washout): did not differ significantly
- mean (±SEM) peak PWT [3, 7]: 15.6 (±0.7) g
- mean (±SEM) peak ΔPWT [3, 7]: 4.2 (±0.6) g
- mean duration of action [3, 8]: ~3 h
- time of peak antinociception post-dosing [3, 8]: 1 h
- effect of ODQ pre-treatment on anti-allodynia ([4]; ODQ 53.4 μmol/kg s.c. 60 min before Compound 1 800 pmol/kg s.c.): significantly attenuated from 45 minutes onwards; also recorded: partially sensitive
- effect of naloxone pre-treatment on anti-allodynia (ΔPWT AUC) ([4]; naloxone 1.25 μmol/kg s.c. 10 min before Compound 1 800 pmol/kg or morphine 7 μmol/kg s.c.): did not significantly attenuate; also recorded: naloxone insensitive
- inhibition of forskolin-stimulated cAMP formation [5]: did not appear to inhibit
